Measured values reported in patent US10111866B2, “Compounds as rearranged during transfection (RET) inhibitors” (GLAXOSMITHKLINE INTELLECTUAL PROPERTY DEVELOPMENT LIMITED, priority 2015, dated 2018).

What was measured:
[1] = test system: TT cells; test: RET kinase cell-based proliferation assay (TT cells, CellTiter-Glo); details: Homo sapiens, 192 h, eight days
Procedure: RET Kinase Cell-Based Proliferation Assay
The potency of the compounds of the invention were tested for its ability to inhibit cell proliferation and cell viability. TT cells (ATCC CRL-1803), a medullary thyroid cancer cell line with constitutively activated RET kinase, were maintained in 150 cm^2 dishes in F12 Kaighn's medium, 10% fetal bovine serum, 1× Glutamax, 1× non-essential amino acids, 1× Pen/Strep antibiotics at 37° C. in 5% carbon dioxide. 6.0E3 TT cells/well in 50 μL of media were added to a 96-well cell culture plate and allowed to adhere overnight. 50 μL of serially diluted RET inhibitor compounds were added to 96-well plate containing cultured TT cells and incubated at 37° C. in 5% carbon dioxide for eight days. 50 μL of CellTiter-Glo (Promega #G-7573) was added, contents mixed for 1 minute on shaker followed by 10 minutes in the dark at 23° C. and the luminescence read by EnVision (PerkinElmer). IC50s were fitted using GraphPad Prism to a sigmoidal dose response.

[2] = target: Human RET kinase (Homo sapiens (Human), UniProt P07949); test: RET kinase enzymatic assay; assay type: biochemical; details: GST-RET cytoplasmic domain, HTRF readout
Chain of Human RET kinase (P07949 658-1114): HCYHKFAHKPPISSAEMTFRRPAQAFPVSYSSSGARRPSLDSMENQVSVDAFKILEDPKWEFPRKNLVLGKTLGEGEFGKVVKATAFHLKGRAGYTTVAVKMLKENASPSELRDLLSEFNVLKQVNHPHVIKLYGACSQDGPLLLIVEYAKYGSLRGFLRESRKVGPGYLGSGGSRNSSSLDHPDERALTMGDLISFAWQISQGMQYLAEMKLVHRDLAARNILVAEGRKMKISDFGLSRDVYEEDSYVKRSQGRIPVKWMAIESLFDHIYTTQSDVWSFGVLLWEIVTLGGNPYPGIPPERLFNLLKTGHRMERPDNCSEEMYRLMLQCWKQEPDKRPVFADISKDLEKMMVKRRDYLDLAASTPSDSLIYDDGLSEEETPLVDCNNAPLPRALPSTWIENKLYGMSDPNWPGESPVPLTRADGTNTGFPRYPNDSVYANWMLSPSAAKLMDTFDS
Procedure: RET Kinase Enzymatic Assay
Human RET kinase cytoplasmic domain (amino acids 658-1114 of accession number NP_000314.1) was expressed as an N-terminal GST-fusion protein using a baculovirus expression system. GST-RET was purified using glutathione sepharose chromatography. The RET kinase enzymatic assay was performed in a total volume of 10 uL with increasing concentrations of RET kinase inhibitor as a singlet in a 384 well format as follows: RET inhibitor compound plates are prepared by adding 100 nL of RET inhibitor at different concentrations to a 384-well plate. 5 μL/well of a 2× enzyme mix (50 mM HEPES (4-(2-hydroxyethyl)-1-piperazineethanesulfonic acid); 1 mM CHAPS (3-[(3-cholamidopropyl)dimethylammonio]-1-propane sulfonate); 0.1 mg/mL BSA (bovine serum albumin); 1 mM DTT (dithiothreitol); 0.2 nM RET kinase) was added to the 384-well plate and incubated for 30 minutes at 23° C. […] 10 μL/well of 2× stop/detection mix (50 mM HEPES; 0.1% BSA; 800 mM Potassium Fluoride; 50 mM EDTA (Ethylenediaminetetraacetic acid); 200× dilution of Europium Cryptate labeled anti-phosphotyrosine antibody; 62.5 nM Streptavidin-XL665) incubated for 1 hour at 23° C. and read on a Homogenous Time-Resolved Fluorescence reader. […]

## CCOc1cc(=O)[nH]cc1-c1ccc(CC(=O)Nc2cc(C(=O)NCCN(C)C)cc(C(F)(F)F)c2)c(F)c1 [Example 1, N-(2-(dimethylamino)ethyl)-3-(2-(4-(4-ethoxy-6-oxo-1,6-dihydropyridin-3-yl)-2-fluorophenyl)acetamido)-5-(trifluoromethyl)benzamide]
[1]
  IC50: 10 to 100 nM
[2]
  IC50: ≤ 10 nM

## CCOc1cc(=O)[nH]cc1-c1ccc(CC(=O)Nc2cc(OCCN(C)C)cc(C(F)(F)F)c2)c(F)c1 [Example 2, N-(3-(2-(dimethylamino)ethoxy)-5-(trifluoromethyl)phenyl)-2-(4-(4-ethoxy-6-oxo-1,6-dihydropyridin-3-yl)-2-fluorophenyl)acetamide]
[1]
  IC50: 10 to 100 nM
[2]
  IC50: ≤ 10 nM
